Earlier results on one molecule are cited in patent US20090023668A1, “Method for treating blepharitis” (priority 2006, published 2009).

SMILES strings stand for the structures.

For this data set the following is noted: administered to an ocular area at a concentration of 0.1%.

Regarding `C[C@@H]1C[C@H]2[C@@H]3CCC4=CC(=O)C=C[C@]4(C)[C@@]3(F)[C@@H](O)C[C@]2(C)[C@@]1(O)C(=O)CO` [dexamethasone], the “effect on intraocular pressure” value is “can result in an increase in intraocular pressure”.
